Measured values reported in the supplement of paper PMC12592484.

Assays:
Test in all cases: drug sensitivity score (DSS2, normalised partial AUC of dose-response, 72 h CellTiter-Glo viability) (DSS (dimensionless)); higher = more sensitive (stronger growth inhibition / cytotoxicity); extreme values may be limits of the assay
22Rv1 = test system: 22Rv1
How it was run: (§1)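 In BREEZE, the drug sensitivity score was derived as a partial area under a fitted logistic dose–response curve over the log of that curve's upper asymptote; a higher score marks a more sensitive response. The input came from low-passage primary prostate cancer-associated fibroblasts, PF179T, WPMY-1, LNCaP and 22Rv1 cells, each seeded into 384-well plates with compounds pre-dispensed at five doses spanning a 10,000-fold range. CellTiter-Glo 2.0 luminescence after 72 h gave viability, which was normalized to vehicle and positive-control wells.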

CAF#1 = test system: CAF#1 (primary prostate cancer-associated fibroblasts of myCAF-like type)
How it was run: as §1

CAF#2 = test system: CAF#2 (primary prostate cancer-associated fibroblasts of iCAF-like type)
How it was run: as §1

CAF#3 = test system: CAF#3 (primary prostate cancer-associated fibroblasts of myCAF-like type)
How it was run: as §1

CAF#4 = test system: CAF#4 (primary prostate cancer-associated fibroblasts of iCAF-like type)
How it was run: as §1

CAF#5 = test system: CAF#5 (primary prostate cancer-associated fibroblasts of myCAF-like type)
How it was run: as §1

CAF#6 = test system: CAF#6 (primary prostate cancer-associated fibroblasts of iCAF-like type)
How it was run: as §1

CAF#7 = test system: CAF#7 (primary prostate cancer-associated fibroblasts of myCAF-like type)
How it was run: as §1

LNCAP = test system: LNCAP
How it was run: as §1

PF179T = test system: PF179T
How it was run: as §1

WPMY-1 = test system: WPMY-1
How it was run: as §1

SMILES	drug sensitivity score (22Rv1)	drug sensitivity score (CAF#1)	drug sensitivity score (CAF#2)	drug sensitivity score (CAF#3)	drug sensitivity score (CAF#4)	drug sensitivity score (CAF#5)	drug sensitivity score (CAF#6)	drug sensitivity score (CAF#7)	drug sensitivity score (LNCAP)	drug sensitivity score (PF179T)	drug sensitivity score (WPMY-1)
COc1ccc(C[C@H](NC(=O)[C@H](C)NC(=O)CN2CCOCC2)C(=O)N[C@@H](Cc2ccccc2)C(=O)C2(C)CO2)cc1 (stereo in doubt) [ONX-0914] (tested concentration range 1-10000 nM)	18	14	16	15.5	10.3	18.3	15	15.6	19.3	14.8	23.4
Cc1ccc(C(=O)N(CCCN)[C@@H](c2oc3cc(Cl)ccc3c(=O)c2Cc2ccccc2)C(C)C)cc1 (tested concentration range 0-100 nM)	3.6	1.6	7.1	0.4	2.5	4.3	1.6	1.3	19.3	2.9	4
CNS(=O)(=O)Nc1nccc(Cc2c(C)c3ccc(Oc4ncccn4)cc3oc2=O)c1F (tested concentration range 0.1-1000 nM)	0.2	0	0	0	0	0	0	0	1.1	0	0
C[C@@H](Oc1ccc2[nH]nc(/C=C/c3cnn(CCO)c3)c2c1)c1c(Cl)cncc1Cl (tested concentration range 0.1-1000 nM)	2.9	9.7	7.2	9.9	5.7	6.7	10.9	18.7	2.5	8.9	8
Cc1c(-c2c(-c3ccc(F)o3)sc3ncnc(O[C@H](Cc4ccccc4OCc4ccnn4CC(F)(F)F)C(=O)O)c23)ccc(OCCN2CCN(C)CC2)c1Cl (tested concentration range 0.1-1000 nM)	0.7	0	0	0	0	0	0	0	0	0	0
Cc1c(-c2ccc(N3CCc4cccc(C(=O)Nc5nc6ccccc6s5)c4C3)nc2C(=O)O)cnn1CC12CC3CC(CC(C3)C1)C2 (tested concentration range 0.1-1000 nM)	0	0	0	0	3.1	0	4.2	0.4	4.4	0	0
CO[C@@H](C)Cn1c(=O)n(C)c2cnc3ccc(-c4cncc(C(C)(C)O)c4)cc3c21 (tested concentration range 0.2-2500 nM)	16.8	14.1	13.5	10.3	10.7	14.5	10.9	10.5	16.8	14.1	12
Cc1cccc(CC(=O)N2CCc3c2ccc(-c2cn(C)c4ncnc(N)c24)c3F)n1 (tested concentration range 0.2-2500 nM)	0.1	0	0	0	0	0	0	0	0.7	0	0
Cc1ncc(Cl)cc1NCc1ccc(C(=O)N[C@@H](CC2CCCC2)C(=O)NC2CC2)s1 (tested concentration range 0.5-5000 nM)	0	0	3	0.4	0.6	2.1	0	1.2	2	3.7	0
CC(C)Oc1ccc(C(=O)N[C@H](CNC(=O)CN(C)C)Cc2ccc(-c3cn4cccc([C@H](C)O)c4n3)cc2)cc1Cl (tested concentration range 1-10000 nM)	10.9	1.4	9.8	2.5	5.5	3	3.2	2.4	19.1	9	24.5
CC[C@@H]1[C@H](F)C(=O)N[C@@H]1COc1nccc2cc(C(N)=O)c(OC)cc12 (tested concentration range 1-10000 nM)	1.4	0	0.4	0	0	0	0	0.1	1.6	0	0
CCc1cncnc1N1CCN(Cc2nc3ccc(C(F)(F)F)cc3[nH]2)CC1 (tested concentration range 1-10000 nM)	2.9	1.8	2.4	7.6	1.1	1.6	0.5	0.9	4	0	1.7
CCn1c(-c2nonc2N)nc2c(C#CC(C)(C)O)ncc(OC[C@H]3CCCNC3)c21 (tested concentration range 1-10000 nM)	5.4	3.8	3.3	0	1.2	1.6	0	0	25.7	1.9	0
CCn1c(-c2nonc2N)nc2cnc(Oc3cccc(NC(=O)c4ccc(OCCN5CCOCC5)cc4)c3)cc21 (tested concentration range 1-10000 nM)	4.7	3.2	3.3	0.2	0.6	1.2	2.8	4.7	8.1	0.9	6.8
CN(C)CC#Cc1ccc(OCCCc2sc(N3CCc4cccc(C(=O)Nc5nc6ccccc6s5)c4C3)nc2C(=O)O)c(F)c1 (tested concentration range 1-10000 nM)	0	2.7	2.3	0.2	14.4	3.2	5.6	4.1	6.1	0	1.4
CN1CCN(C2CCC(n3cc(-c4ccc(Oc5ccccc5)cc4)c4c(N)ncnc43)CC2)CC1 (stereo unspecified) (tested concentration range 1-10000 nM)	9.1	12.2	14.6	11.2	13.6	11.5	11.7	16.6	8.3	9.3	10.1
CNc1nc(-c2ccc3c(N)n[nH]c3c2)cc(N2C[C@@H](C(=O)NC3CCCCC3)CC[C@H]2C)n1 (tested concentration range 1-10000 nM)	6.4	4	1.1	6.6	2.4	5.8	4	3.8	7.5	0	1.4
CNc1ncc2cc(-c3cc(NC(=O)NCCC(C)(C)C)c(F)cc3C)c(C)nc2n1 (tested concentration range 1-10000 nM)	8.5	7.4	11	1.6	9.2	7.2	6.3	8	10.4	6.7	5.6
COc1ccc(Cn2ccc3ccc(C(=O)NO)cc32)cc1 (tested concentration range 1-10000 nM)	2.8	2.8	3.1	2.9	1.4	1.4	4.1	4	5.5	4.8	2.8
Cc1c(Cn2c(C)nc3c(C(=O)O)cc(N4CCOCC4)cc32)cccc1C(F)(F)F (tested concentration range 1-10000 nM)	0	2.6	0.4	6.2	1.3	0.1	2.1	5.1	12.4	2.1	0
Cn1cc(-c2ccc(F)c(C(F)(F)F)c2)nc1C1CCN(c2ncnc3[nH]ncc23)CC1 (tested concentration range 1-10000 nM)	2.3	1.3	1	0	1.4	1.5	0.5	0.4	7.1	0	0
N#Cc1ccc(COC[C@H]2O[C@@H](n3c(NCc4ccc(Cl)c(Cl)c4)nc4c(N)ncnc43)[C@H](O)[C@@H]2O)cc1 (tested concentration range 1-10000 nM)	6.9	3.7	5.7	0.6	5.7	4.7	1.8	4.5	5	4.4	1.9
Nc1nccc(-c2c(-c3ccc(F)cc3)ncn2C2CCCCC2)n1 (tested concentration range 1-10000 nM)	6.1	0	0.6	2.1	0.1	0	0	0	4.6	0	0
Nc1ncnc2c1c(COc1cccc(Cl)c1)nn2C1CCOCC1 (tested concentration range 1-10000 nM)	0	2.5	2.1	2.8	0	1.8	0.6	1	2.3	0	0
O=C(O)c1ccc(-c2c[nH]c3ncc(-c4ccccc4)cc23)cc1C1CCCC1 (tested concentration range 1-10000 nM)	0	0	2.3	0	0	0.8	0	0	0	0.1	2.4
O=c1[nH]c(C2CCCN2)nc2c1oc1ccc(Cl)cc12 (stereo unspecified) (tested concentration range 1-10000 nM)	0.6	0	0	1.6	0	0	0	0	2.7	0	3.3
CC1(C)OCCn2c1nc1c(N3CCOCC3)nc(-c3cnc(N)nc3)nc12 [Paxalisib] (tested concentration range 1-10000 nM)	18.1	16	–	–	13	18.3	–	–	13.5	–	–
